For assay [1], the target named is T1, recombinant Ndc80 complex (Bonsai; Ndc80^bonsai) (Homo sapiens, UniProt O14777).
T1 construct: Ndc80 bonsai: globular domains with shortened rod; plasmid from A. Musacchio; E. coli BL21(DE3), GST cut off with PreScission; with Kinetochore protein Nuf2; Kinetochore protein Spc25; Kinetochore protein Spc24
The experiment in a line: fluorescence anisotropy of the compound (ex […] nm, em […] nm). Format: binding. Conditions: PBS, 23 °C; 5 μM VTT-006, 1–15 μM protein; one site model with ligand depletion.

Assay [2] deals with T2, GFP-tagged Ndc80 complex (Ndc80-GFP) (Homo sapiens, UniProt O14777).
T2 construct: with Kinetochore protein Nuf2; Kinetochore protein Spc25; Kinetochore protein Spc24
T2 sequence (O14777 whole entry): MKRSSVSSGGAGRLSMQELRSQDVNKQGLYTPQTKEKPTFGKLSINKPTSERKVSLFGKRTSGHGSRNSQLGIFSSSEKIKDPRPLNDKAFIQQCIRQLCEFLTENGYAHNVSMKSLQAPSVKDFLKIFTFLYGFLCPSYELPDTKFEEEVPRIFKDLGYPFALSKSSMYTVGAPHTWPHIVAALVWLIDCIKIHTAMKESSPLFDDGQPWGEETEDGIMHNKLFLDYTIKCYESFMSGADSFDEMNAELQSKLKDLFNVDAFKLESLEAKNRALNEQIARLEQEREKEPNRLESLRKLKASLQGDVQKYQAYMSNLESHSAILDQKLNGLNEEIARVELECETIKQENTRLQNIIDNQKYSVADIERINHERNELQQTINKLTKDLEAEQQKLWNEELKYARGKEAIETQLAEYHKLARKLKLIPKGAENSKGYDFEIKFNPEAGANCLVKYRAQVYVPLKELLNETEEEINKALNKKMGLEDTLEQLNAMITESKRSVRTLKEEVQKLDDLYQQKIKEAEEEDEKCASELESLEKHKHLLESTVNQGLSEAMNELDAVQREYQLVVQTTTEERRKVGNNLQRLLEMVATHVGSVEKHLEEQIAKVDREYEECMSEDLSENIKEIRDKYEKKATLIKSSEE
T2 sequence (Q9BZD4 whole entry partner): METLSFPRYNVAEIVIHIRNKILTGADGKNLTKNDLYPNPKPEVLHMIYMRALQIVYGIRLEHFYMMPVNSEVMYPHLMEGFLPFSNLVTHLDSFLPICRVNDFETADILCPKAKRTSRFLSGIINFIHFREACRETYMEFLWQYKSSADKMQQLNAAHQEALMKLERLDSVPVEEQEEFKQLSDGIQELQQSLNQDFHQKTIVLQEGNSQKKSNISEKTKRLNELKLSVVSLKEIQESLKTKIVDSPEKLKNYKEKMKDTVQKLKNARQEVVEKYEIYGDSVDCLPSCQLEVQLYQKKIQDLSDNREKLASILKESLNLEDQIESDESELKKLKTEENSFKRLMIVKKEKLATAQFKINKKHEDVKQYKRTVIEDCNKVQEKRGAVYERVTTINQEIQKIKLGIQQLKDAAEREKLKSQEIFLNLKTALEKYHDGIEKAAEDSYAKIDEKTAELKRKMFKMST
T2 sequence (Q8NBT2 whole entry partner): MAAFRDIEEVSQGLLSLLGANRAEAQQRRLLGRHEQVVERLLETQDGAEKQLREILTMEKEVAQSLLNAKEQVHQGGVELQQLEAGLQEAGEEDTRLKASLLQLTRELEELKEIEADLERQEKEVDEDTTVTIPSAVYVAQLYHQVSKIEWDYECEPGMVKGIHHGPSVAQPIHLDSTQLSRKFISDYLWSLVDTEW
T2 sequence (Q9HBM1 whole entry partner): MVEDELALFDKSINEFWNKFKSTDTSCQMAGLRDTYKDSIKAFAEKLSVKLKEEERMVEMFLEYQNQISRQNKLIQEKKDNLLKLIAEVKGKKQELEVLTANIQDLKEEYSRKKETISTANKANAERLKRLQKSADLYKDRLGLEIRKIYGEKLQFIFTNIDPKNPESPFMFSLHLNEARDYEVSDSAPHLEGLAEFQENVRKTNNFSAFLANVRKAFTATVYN
The experiment in a line: single-molecule TIRF, residence time of Ndc80-GFP on microtubules. Format: biochemical. Particulars: 10 μM VTT-006; Taxol-stabilized microtubules, BRB80 pH 6.9; Ndc80 6–10 pM.

T1 sequence (O14777 1-286 limits assumed): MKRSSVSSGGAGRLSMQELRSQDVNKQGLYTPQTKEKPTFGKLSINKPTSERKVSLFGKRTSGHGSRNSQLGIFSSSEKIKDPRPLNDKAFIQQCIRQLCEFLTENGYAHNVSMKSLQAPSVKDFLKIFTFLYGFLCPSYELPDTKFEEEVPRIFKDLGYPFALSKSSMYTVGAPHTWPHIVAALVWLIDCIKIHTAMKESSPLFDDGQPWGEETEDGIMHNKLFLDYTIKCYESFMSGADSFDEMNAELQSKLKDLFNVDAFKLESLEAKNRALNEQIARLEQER
T1 sequence (Q9BZD4 1-169 partner limits assumed): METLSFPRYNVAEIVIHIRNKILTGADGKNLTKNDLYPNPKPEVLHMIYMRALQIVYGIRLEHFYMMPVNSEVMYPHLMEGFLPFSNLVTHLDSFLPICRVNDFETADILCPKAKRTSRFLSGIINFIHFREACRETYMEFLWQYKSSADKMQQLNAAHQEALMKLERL
T1 sequence (Q9HBM1 118-224 partner limits assumed): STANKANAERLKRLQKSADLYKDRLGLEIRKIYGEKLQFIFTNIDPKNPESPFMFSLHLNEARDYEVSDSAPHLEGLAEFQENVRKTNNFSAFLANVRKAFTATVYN
T1 sequence (Q8NBT2 122-197 partner limits assumed): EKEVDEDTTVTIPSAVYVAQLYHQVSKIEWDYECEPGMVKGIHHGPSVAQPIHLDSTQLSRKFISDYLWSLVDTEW

On to `CC#CC(=O)N1CCc2c([nH]c3ccccc23)C1c1ccc(OC)c(C)c1` (stereo not drawn) [VTT-006, 2-(2-butynoyl)-1-(4-methoxy-3-methylphenyl)-2,3,4,9-tetrahydro-1H-beta-carboline], for which, in assay [1], the Kd came to 2070 ± 2840 nM. The koff result in assay [2] is reported as “residence time of Ndc80-GFP on microtubules was significantly shorter in the presence of VTT-006”.

The record behind these values is publication PMC8667816, “VTT-006, an anti-mitotic compound, binds to the Ndc80 complex and suppresses cancer cell growth in vitro” (Oncoscience, 2021).
